# pIC50, pKd: −log10 of the molar value.
# Key:
# BT-474 = assay: Cell viability assay (CellTiter-Blue/CellTiter-Glow); type: cell-based; settings: Homo sapiens; breast carcinoma cell line BT-474; absolute IC50; 72 h
# Summary of the method: (§1)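 Readout: CellTiter-Blue (ex 570/em 600 nm) or CellTiter-Glo luminescence after 72 h compound exposure. 5–6 half-log concentrations, top 30 or 100 μM, duplicate/triplicate, DMSO <0.3%. IC50 = absolute, 4-parameter fit at T/C=50%.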
# HCC1806 = assay: as above; type: cell-based; settings: Homo sapiens; breast carcinoma cell line HCC1806; absolute IC50; 72 h
# Summary of the method: as §1
# MDA-MB-231 = assay: as above; type: cell-based; settings: Homo sapiens; breast carcinoma cell line MDA-MB-231; absolute IC50; 72 h
# Summary of the method: as §1
# MDA-MB-436 = assay: as above; type: cell-based; settings: Homo sapiens; breast carcinoma cell line MDA-MB-436; absolute IC50; 72 h
# Summary of the method: as §1
# Panc-1 = assay: as above; type: cell-based; settings: Homo sapiens; pancreatic carcinoma cell line Panc-1; absolute IC50; 72 h
# Summary of the method: as §1
# [1] = tested on: SCLC doxorubicin resistant cell line H69AR; assay: as above; type: cell-based; settings: Homo sapiens, absolute IC50, 72 h
# Summary of the method: as §1
# SK-N-AS = assay: as above; type: cell-based; settings: Homo sapiens; brain carcinoma cell line SK-N-AS; absolute IC50; 72 h
# Summary of the method: as §1
# T47D = assay: as above; type: cell-based; settings: Homo sapiens; breast carcinoma cell line T47D; absolute IC50; 72 h
# Summary of the method: as §1
# U-251 = assay: as above; type: cell-based; settings: Homo sapiens; brain carcinoma cell line U-251; absolute IC50; 72 h
# Summary of the method: as §1
# [2] = molecular target: T1, ABL1(E255K)-phosphorylated (Homo sapiens, UniProt P00519, E255K); assay: KINOMEscan competition binding assay, Kd; settings: 11-point 3-fold dilution series
# T1 construct: purchased Eurofins (KINOMEscan); host or cells: T7 phage in BL21-derived E. coli, or HEK-293
# T1 sequence (P00519 whole entry E255K): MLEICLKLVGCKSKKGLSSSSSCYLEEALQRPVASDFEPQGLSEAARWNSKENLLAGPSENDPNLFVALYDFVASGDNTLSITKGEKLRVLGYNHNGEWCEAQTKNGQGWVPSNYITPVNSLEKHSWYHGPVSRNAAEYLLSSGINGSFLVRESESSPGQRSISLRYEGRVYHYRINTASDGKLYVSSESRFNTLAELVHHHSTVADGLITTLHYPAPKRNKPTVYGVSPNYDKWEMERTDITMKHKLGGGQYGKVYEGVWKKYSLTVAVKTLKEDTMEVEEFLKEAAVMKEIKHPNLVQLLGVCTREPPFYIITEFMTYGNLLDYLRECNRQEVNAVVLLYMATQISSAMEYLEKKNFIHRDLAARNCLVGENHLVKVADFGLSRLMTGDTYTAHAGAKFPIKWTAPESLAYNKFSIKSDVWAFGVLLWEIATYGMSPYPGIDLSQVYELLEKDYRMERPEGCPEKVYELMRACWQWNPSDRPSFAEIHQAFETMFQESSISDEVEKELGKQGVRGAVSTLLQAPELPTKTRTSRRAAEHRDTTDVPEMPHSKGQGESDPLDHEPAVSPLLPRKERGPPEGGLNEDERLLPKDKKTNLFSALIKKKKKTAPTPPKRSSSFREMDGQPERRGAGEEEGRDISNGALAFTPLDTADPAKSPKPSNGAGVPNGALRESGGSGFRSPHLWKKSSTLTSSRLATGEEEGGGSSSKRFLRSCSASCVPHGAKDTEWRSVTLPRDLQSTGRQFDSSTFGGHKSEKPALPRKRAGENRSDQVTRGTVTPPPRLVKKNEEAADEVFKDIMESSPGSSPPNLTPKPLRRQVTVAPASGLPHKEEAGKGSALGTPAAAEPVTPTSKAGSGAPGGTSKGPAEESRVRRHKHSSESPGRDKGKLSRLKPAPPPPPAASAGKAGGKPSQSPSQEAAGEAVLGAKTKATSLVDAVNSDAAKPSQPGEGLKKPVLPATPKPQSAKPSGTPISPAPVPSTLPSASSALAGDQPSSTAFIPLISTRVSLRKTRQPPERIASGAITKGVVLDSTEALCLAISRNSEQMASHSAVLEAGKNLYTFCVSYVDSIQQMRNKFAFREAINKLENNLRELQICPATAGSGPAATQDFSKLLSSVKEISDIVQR
# Procedure: (§2) Selected compounds were screened for kinase inhibition using the KINOMEscan™ assay (Eurofins) which is based on a competition binding assay that quantitatively measures the ability of a compound to compete with an immobilized, active-site directed ligand. The assay was performed by combining three components: DNA-tagged kinase; immobilized ligand; and the test compound. The ability of the test compound to compete with the immobilized ligand was measured via quantitative PCR of the DNA tag.
# (§3) Kinase-tagged T7 phage strains were prepared in an E. coli host derived from the BL21 strain. E. coli were grown to log-phase and infected with T7 phage and incubated with shaking at 32° C. until lysis. The lysates were centrifuged and filtered to remove cell debris. The remaining kinases were produced in HEK-293 cells and subsequently tagged with DNA for qPCR detection. Streptavidin-coated magnetic beads were treated with biotinylated small molecule ligands for 30 minutes at room temperature to generate affinity resins for kinase assays. The liganded beads were blocked with excess biotin and washed with blocking buffer (SeaBlock (Pierce), 1% BSA, 0.05% Tween 20, 1 mM DTT) to remove unbound ligand and to reduce non-specific binding. Binding reactions were assembled by combining kinases, liganded affinity beads, and test compounds in 1× binding buffer (20% SeaBlock, 0.17×PBS, 0.05% Tween 20, 6 mM DTT). Test compounds were prepared as 111× stocks in 100% DMSO. Kds were determined using an 11-point 3-fold compound dilution series with three DMSO control points. All compounds for Kd measurements are distributed by acoustic transfer (non-contact dispensing) in 100% DMSO. The compounds were then diluted directly into the assays such that the final concentration of DMSO was 0.9%. All reactions performed in polypropylene 384-well plate. Each was a final volume of 0.02 ml. The assay plates were incubated at room temperature with shaking for 1 hour and the affinity beads were washed with wash buffer (1×PBS, 0.05% Tween 20). The beads were then resuspended in elution buffer (1×PBS, 0.05% Tween 20, 0.5 μM nonbiotinylated affinity ligand) and incubated at room temperature with shaking for 30 minutes. The kinase concentration in the eluates was measured by qPCR.
# (§4) Binding constants (Kds) were calculated with a standard dose-response curve using the Hill equation: Response=Background+[Signal−Background/i+(Kd^Hill Slope/Dose^Hill Slope)]. The Hill Slope was set to −1. Curves were fitted using a non-linear least square fit with the Levenberg-Marquardt algorithm.
# ABL1-nonphosphorylated = molecular target: T2, ABL1-nonphosphorylated (Homo sapiens, UniProt P00519); assay: KINOMEscan competition binding assay, Kd; settings: 11-point 3-fold dilution series
# T2 construct: purchased Eurofins (KINOMEscan); host or cells: T7 phage in BL21-derived E. coli, or HEK-293
# T2 sequence (P00519 whole entry): as the sequence (P00519 whole entry E255K) above, with K255E counted along it
# Procedure: as §2, §3, §4
# ABL1-phosphorylated = molecular target: T3, ABL1-phosphorylated (Homo sapiens, UniProt P00519); assay: KINOMEscan competition binding assay, Kd; settings: 11-point 3-fold dilution series
# T3 construct: purchased Eurofins (KINOMEscan); host or cells: T7 phage in BL21-derived E. coli, or HEK-293
# T3 sequence (P00519 whole entry): as the sequence (P00519 whole entry E255K) above, with K255E counted along it
# Procedure: as §2, §3, §4
# OVXF 899 = assay: Cell viability assay (CellTiter-Blue/CellTiter-Glow); type: cell-based; settings: ovarian carcinoma cell line OVXF 899; absolute IC50; 72 h
# Summary of the method: as §1
pIC50 (BT-474),pIC50 (HCC1806),pIC50 (MDA-MB-231),pIC50 (MDA-MB-436),pIC50 (Panc-1),pIC50 (SK-N-AS),pIC50 (T47D),pIC50 (U-251),pKd [2],pKd (ABL1-nonphosphorylated),pKd (ABL1-phosphorylated),Structure (SMILES),pIC50 [1],pIC50 (OVXF 899)
5.80,5.64,5.70,5.64,5.63,5.46,5.77,5.73,6.01,5.89,6.07,"O=c1cc(-c2ccc(CCCC[P+](c3ccccc3)(c3ccccc3)c3ccccc3)cc2)oc2c3c(ccc12)OCO3.[Br-] [SND123, 4-[4-(6-oxo-[1,3]dioxolo[4,5-h]chromen-8-yl)phenyl]butyl-triphenylphosphonium bromide]",4.93,
,,,,,,,,,,,"CCNC(=O)Oc1ccc2c(=O)cc(-c3ccc(CCCC[P+](c4ccccc4)(c4ccccc4)c4ccccc4)cc3)oc2c1O.[Br-] [SND126A, 4-[4-[7-(Ethylcarbamoyloxy)-8-hydroxy-4-oxo-chromen-2-yl]phenyl]butyltriphenylphosphonium bromide]",,4.75
,,,,,,,,6.18,5.82,6.15,"COc1c(O)ccc2c(=O)cc(-c3ccc(CCCC[P+](c4ccccc4)(c4ccccc4)c4ccccc4)cc3)oc12.[Br-] [SND140, (4-(4-(7-hydroxy-8-methoxy-4-oxo-4H-chromen-2-yl)phenyl)butyl)triphenylphosphonium bromide]",4.84,
